Experimental findings from ChEMBL document CHEMBL1149979, “1,3-Dithian-2-ylidene and thiazolidin-2-ylidene derivatives as a novel class of antimycotic agents” (1997) are described below.

The structures appear in SMILES notation. Converted amounts (≈) assume the structure as drawn.

The term MIC denotes the least concentration at which growth counts as inhibited.

One assay has as its system Candida albicans. Description: In vitro minimum inhibitory concentration for antifungal activity against human pathogenic fungi Candida albicans. The class given is functional.
The subject of a further assay is Trichophyton benhamiae. Description: In vitro minimum inhibitory concentration for antifungal activity against human pathogenic fungi Trichophyton mentagrophytes. The assay is classed as functional, Arthroderma benhamiae.
The subject of the next assay is Aspergillus fumigatus. In words: In vitro minimum inhibitory concentration for antifungal activity against human pathogenic fungi Aspergillus fumigatus. The assay is classed as functional.
The next assay concerns Sporothrix schenckii. In words: In vitro minimum inhibitory concentration for antifungal activity against human pathogenic fungi Sporothrix schenck ii. The class given is functional.
The test system of a further assay is Cryptococcus neoformans. Description: In vitro minimum inhibitory concentration for antifungal activity against human pathogenic fungi Cryptococcus neoformans. The assay is classed as functional.

Turning to `CCN1CCS/C1=C(/C#N)n1ccnc1`, the MIC was > 100 µg/mL in the assay with Candida albicans; 25 µg/mL (≈ 113 µM) against Trichophyton benhamiae; 25 µg/mL (≈ 113 µM) against Aspergillus fumigatus; > 100 µg/mL with Sporothrix schenckii; > 100 µg/mL with Cryptococcus neoformans.
With `O=C(/C(=C1/SCCN1c1ccccc1)n1ccnc1)c1ccc(Cl)cc1`, the MIC in the assay on Candida albicans, in the assay with Trichophyton benhamiae, with Aspergillus fumigatus, against Sporothrix schenckii and in the assay with Cryptococcus neoformans was > 100 µg/mL each time.
As to `CC1CCS/C(=C(/C#N)n2cnc3ccccc32)S1` (stereo not given), the MIC is > 100 µg/mL against Candida albicans; > 100 µg/mL against Trichophyton benhamiae; 50 µg/mL (≈ 174 µM) in the assay with Aspergillus fumigatus; > 100 µg/mL in the assay with Sporothrix schenckii; > 100 µg/mL with Cryptococcus neoformans.
`CC1CCS/C(=C(/C#N)n2ccnc2)S1` (stereo not given): the MIC is 50 µg/mL (≈ 211 µM) against Candida albicans; 3.12 µg/mL (≈ 13.1 µM) in the assay with Trichophyton benhamiae; 0.19 µg/mL (≈ 0.8 µM) against Aspergillus fumigatus; > 100 µg/mL in the assay with Sporothrix schenckii; > 100 µg/mL in the assay with Cryptococcus neoformans.
Regarding `CCN1/C(=C(\C#N)n2ccnc2)SCC1C` (stereo not given), the MIC against Candida albicans is > 100 µg/mL; against Trichophyton benhamiae it was 50 µg/mL (≈ 213 µM); with Aspergillus fumigatus, 25 µg/mL (≈ 107 µM); against Sporothrix schenckii, > 100 µg/mL; in the assay on Cryptococcus neoformans it was > 100 µg/mL.
As for `CCOC(=O)C(=C1SCCCS1)n1ccnc1`, the MIC with Candida albicans, with Trichophyton benhamiae, in the assay on Aspergillus fumigatus, against Sporothrix schenckii and with Cryptococcus neoformans was > 100 µg/mL in each case.
As for `O=C(/C(=C1/SCCN1c1ccc(Cl)cc1)n1ccnc1)c1ccc(Cl)cc1`, the MIC in the assay on Candida albicans, in the assay with Trichophyton benhamiae, against Aspergillus fumigatus, in the assay on Sporothrix schenckii and against Cryptococcus neoformans was > 100 µg/mL throughout.
`O=C(C(=C1SCCCS1)n1ccnc1)c1ccc(Cl)cc1`: the MIC against Candida albicans was > 100 µg/mL; in the assay with Trichophyton benhamiae, 12.5 µg/mL (≈ 37.1 µM); against Aspergillus fumigatus, 12.5 µg/mL (≈ 37.1 µM); with Sporothrix schenckii, > 100 µg/mL; in the assay with Cryptococcus neoformans it was > 100 µg/mL.
On to `CC1=CS/C(=C(/C#N)n2ccnc2)S1`, for which the MIC against Candida albicans was > 100 µg/mL; against Trichophyton benhamiae, 12.5 µg/mL (≈ 56.5 µM); with Aspergillus fumigatus, 12.5 µg/mL (≈ 56.5 µM); with Sporothrix schenckii, > 100 µg/mL; against Cryptococcus neoformans it was > 100 µg/mL.
`N#CC(=C1SCCCS1)n1ccnc1`: the MIC against Candida albicans is 100 µg/mL (≈ 448 µM); against Trichophyton benhamiae it was 25 µg/mL (≈ 112 µM); in the assay with Aspergillus fumigatus, 3.1 µg/mL (≈ 13.9 µM); in the assay on Sporothrix schenckii, > 100 µg/mL; in the assay with Cryptococcus neoformans, > 100 µg/mL.
As to `CCOC(=O)/C(=C1/SCCC(C)S1)n1ccnc1` (stereo not given), the MIC is > 100 µg/mL in the assay on Candida albicans; 25 µg/mL (≈ 87.9 µM) with Trichophyton benhamiae; 50 µg/mL (≈ 176 µM) against Aspergillus fumigatus; > 100 µg/mL with Sporothrix schenckii; > 100 µg/mL with Cryptococcus neoformans.
For `CC(=O)N1CCN(c2ccc(OC[C@H]3CO[C@](Cn4ccnc4)(c4ccc(Cl)cc4Cl)O3)cc2)CC1` [KETOCONAZOLE], the MIC with Candida albicans is 0.1 µg/mL (≈ 0.188 µM); in the assay on Trichophyton benhamiae, 25 µg/mL (≈ 47 µM); against Aspergillus fumigatus, 0.7 µg/mL (≈ 1.32 µM); with Sporothrix schenckii, 0.1 µg/mL (≈ 0.188 µM); in the assay on Cryptococcus neoformans it was 0.3 µg/mL (≈ 0.565 µM).
